In ChEMBL document CHEMBL1127148, “The squalestatins: novel inhibitors of squalene synthase. The optimal C1 chain-length requirements” (Bioorg Med Chem Lett, 1993) one finds IC50 and Dose data, which are given here for 18 compounds.

pIC50: −log10 of the molar value.

The target of the first assay is T1, Squalene synthase (Rattus norvegicus, UniProt Q02769).
T1 sequence (Q02769 whole entry): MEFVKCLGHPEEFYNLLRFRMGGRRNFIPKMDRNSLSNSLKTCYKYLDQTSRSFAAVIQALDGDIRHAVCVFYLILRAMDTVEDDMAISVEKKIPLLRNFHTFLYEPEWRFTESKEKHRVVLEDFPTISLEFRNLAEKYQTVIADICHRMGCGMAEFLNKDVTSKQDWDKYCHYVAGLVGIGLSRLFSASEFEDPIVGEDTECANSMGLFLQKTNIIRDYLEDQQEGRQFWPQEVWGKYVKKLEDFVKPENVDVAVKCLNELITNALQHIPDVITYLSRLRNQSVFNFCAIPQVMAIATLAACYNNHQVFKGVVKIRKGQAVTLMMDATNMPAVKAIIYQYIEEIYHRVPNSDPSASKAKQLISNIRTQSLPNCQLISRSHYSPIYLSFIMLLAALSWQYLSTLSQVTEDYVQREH
Description: Tested in vitro for the inhibition of Squalene synthase activity, measured using juvenile male rat liver microsomes. Also on record: species or system Microsome.
`C=C(CC[C@]12O[C@H](C(=O)O)[C@@](O)(C(=O)O)[C@](C(=O)O)(O1)[C@H](OC(=O)CC[C@@H](C)C[C@@H](C)CC)[C@H]2O)[C@H](O)[C@@H](C)Cc1ccccc1` gave a pIC50 of 8.70.
Still for that read-out and setting: then `CC[C@H](C)C[C@H](C)CCC(=O)O[C@@H]1[C@@H](O)[C@@]2(C/C=C(\C)[C@H](O)[C@@H](C)Cc3ccccc3)O[C@H](C(=O)O)[C@@](O)(C(=O)O)[C@]1(C(=O)O)O2`, with 7.77; and `CC[C@H](C)C[C@H](C)CCC(=O)O[C@@H]1[C@@H](O)[C@@]2(CC/C(C)=C/[C@@H](C)Cc3ccccc3)O[C@H](C(=O)O)[C@@](O)(C(=O)O)[C@]1(C(=O)O)O2`, with 7.20.
As for `CC[C@H](C)C[C@H](C)CCC(=O)O[C@@H]1[C@@H](O)[C@@]2(CCC(O)[C@H](O)[C@@H](C)Cc3ccccc3)O[C@H](C(=O)O)[C@@](O)(C(=O)O)[C@]1(C(=O)O)O2` (stereo partly drawn), the pIC50 was 8.40.
In turn, `CC[C@H](C)C[C@H](C)CCC(=O)O[C@@H]1[C@@H](O)[C@@]2(CCC(=O)[C@H](O)[C@@H](C)Cc3ccccc3)O[C@H](C(=O)O)[C@@](O)(C(=O)O)[C@]1(C(=O)O)O2` gave a pIC50 of 8.30.
The same measure, in the same setting: then `CC[C@H](C)C[C@H](C)CCC(=O)O[C@@H]1[C@@H](O)[C@@]2(CCC(C)C(=O)[C@@H](C)Cc3ccccc3)O[C@H](C(=O)O)[C@@](O)(C(=O)O)[C@]1(C(=O)O)O2` (single isomer, unassigned; isomer 2), with 6.89; and `CC[C@H](C)C[C@H](C)CCC(=O)O[C@@H]1[C@@H](O)[C@@]2(CCC(C)C(=O)[C@@H](C)Cc3ccccc3)O[C@H](C(=O)O)[C@@](O)(C(=O)O)[C@]1(C(=O)O)O2` (stereo in doubt), with 7.80.

The next assay concerns Rattus norvegicus. As to the kind of experiment: Tested for daily dose at which compound shows 50% reduction in serum cholesterol levels after oral administration. The assay is classed as functional.
On to `C=C(CC[C@]12O[C@H](C(=O)O)[C@@](O)(C(=O)O)[C@](C(=O)O)(O1)[C@H](OC(=O)/C=C/[C@@H](C)C[C@@H](C)CC)[C@H]2O)[C@H](OC(C)=O)[C@@H](C)Cc1ccccc1`, for which the Dose amounted to 10 mg/kg.

In a further assay the target is T1, Squalene synthase. As to the kind of experiment: Inhibition of Squalene synthase activity in juvenile male rat liver microsomes. Also on record: species or system Microsome.
The compound `CCCCCCC(=O)CCC[C@]12O[C@H](C(=O)O)[C@@](O)(C(=O)O)[C@](C(=O)O)(O1)[C@H](OC(=O)CC[C@@H](C)C[C@@H](C)CC)[C@H]2O` gave a pIC50 of less than 6.30.
The same measure, in the same setting: the figure for `C=C(CC[C@]12O[C@H](C(=O)O)[C@@](O)(C(=O)O)[C@](C(=O)O)(O1)[C@H](OC(=O)/C=C/[C@@H](C)C[C@@H](C)CC)[C@H]2O)[C@H](O)[C@@H](C)Cc1ccccc1` is 8.30; for `CC[C@H](C)C[C@H](C)CCC(=O)O[C@@H]1[C@@H](O)[C@@]2(CCCC(=O)Cc3ccccc3)O[C@H](C(=O)O)[C@@](O)(C(=O)O)[C@]1(C(=O)O)O2` it is less than 6.30.
`CC[C@H](C)C[C@H](C)CCC(=O)O[C@@H]1[C@@H](O)[C@@]2(CCCC(=O)CCCc3ccccc3)O[C@H](C(=O)O)[C@@](O)(C(=O)O)[C@]1(C(=O)O)O2`: the pIC50 was 6.82.
Consider `CC[C@H](C)C[C@H](C)CCC(=O)O[C@@H]1[C@@H](O)[C@@]2(CCC(C)C(=O)CCc3ccccc3)O[C@H](C(=O)O)[C@@](O)(C(=O)O)[C@]1(C(=O)O)O2` (stereo partly drawn), for which the pIC50 is 7.32. Against the preceding compound, the pIC50 is 0.50 log units higher.
The compound `CC[C@H](C)C[C@H](C)CCC(=O)O[C@@H]1[C@@H](O)[C@@]2(CCCC(=O)CCc3ccccc3)O[C@H](C(=O)O)[C@@](O)(C(=O)O)[C@]1(C(=O)O)O2` showed a pIC50 of 7.25.
`CC[C@H](C)C[C@H](C)CCC(=O)O[C@@H]1[C@@H](O)[C@@]2(CCCC(=O)C(C)Cc3ccccc3)O[C@H](C(=O)O)[C@@](O)(C(=O)O)[C@]1(C(=O)O)O2` (stereo partly drawn) gave a pIC50 of 7.54.
On to `CC[C@H](C)C[C@H](C)CCC(=O)O[C@@H]1[C@@H](O)[C@@]2(CCC(C)=O)O[C@H](C(=O)O)[C@@](O)(C(=O)O)[C@]1(C(=O)O)O2`, for which the pIC50 was 6.33.
In turn, `CC[C@H](C)C[C@H](C)CCC(=O)O[C@@H]1[C@@H](O)[C@@]2(CCO)O[C@H](C(=O)O)[C@@](O)(C(=O)O)[C@]1(C(=O)O)O2` gave a pIC50 of less than 6.30.
For the compound `CCCC(=O)CCC[C@]12O[C@H](C(=O)O)[C@@](O)(C(=O)O)[C@](C(=O)O)(O1)[C@H](OC(=O)CC[C@@H](C)C[C@@H](C)CC)[C@H]2O`, the negative-log IC50 (pIC50) is less than 6.30.
